Assay results published in the supplement of paper PMC10307832.

Legend:
Test in all cases: relative viability (nuclei count vs DMSO), 5 days (fraction); higher = more cells survive
PAC-1 + Phenformin = compound: C=CCc1cccc(/C=N/NC(=O)CN2CCN(Cc3ccccc3)CC2)c1O [PAC-1] + N=C(N)NC(=N)NCCc1ccccc1 [Phenformin] (partner 250 µM)
In short: (§1)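 The day after seeding in 1536-well plates, lung cancer cell lines were treated by pin tool with a single drug, or with a fixed anchor-drug dose together with five library-drug doses (not always all listed) in √10 steps. After 5 days, a combined fix-and-stain solution (final 0.05% Triton X-100, 1% formaldehyde, 1 ug/ml Hoechst) was added. Nuclei counted on 4× images gave relative viability as treated counts over vehicle counts, reported as the median of duplicate plates.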

PAC-1 + Luminespib = compound: C=CCc1cccc(/C=N/NC(=O)CN2CCN(Cc3ccccc3)CC2)c1O [PAC-1] + CCNC(=O)c1noc(-c2cc(C(C)C)c(O)cc2O)c1-c1ccc(CN2CCOCC2)cc1 [Luminespib] (partner 0.01 µM)
In short: as §1

PAC-1 + Crizotinib = compound: C=CCc1cccc(/C=N/NC(=O)CN2CCN(Cc3ccccc3)CC2)c1O [PAC-1] + C[C@@H](Oc1cc(-c2cnn(C3CCNCC3)c2)cnc1N)c1c(Cl)ccc(F)c1Cl [Crizotinib] (partner 1 µM)
In short: as §1

BMX-IN-1 + Luminespib = compound: C=CC(=O)Nc1cc(-n2c(=O)ccc3cnc4ccc(-c5ccc(NS(C)(=O)=O)cc5)cc4c32)ccc1C [BMX-IN-1] + CCNC(=O)c1noc(-c2cc(C(C)C)c(O)cc2O)c1-c1ccc(CN2CCOCC2)cc1 [Luminespib] (partner 0.01 µM)
In short: as §1

PAC-1 + Trametinib = compound: C=CCc1cccc(/C=N/NC(=O)CN2CCN(Cc3ccccc3)CC2)c1O [PAC-1] + CC(=O)Nc1cccc(-n2c(=O)n(C3CC3)c(=O)c3c(Nc4ccc(I)cc4F)n(C)c(=O)c(C)c32)c1 [Trametinib] (partner 0.02 µM)
In short: as §1

| Cell Line | relative viability (PAC-1 + Phenformin; first compound 0.02 µM) | relative viability (PAC-1 + Phenformin; first compound 0.06325 µM) | relative viability (PAC-1 + Phenformin; first compound 0.2 µM) | relative viability (PAC-1 + Phenformin; first compound 2 µM) | relative viability (PAC-1 + Luminespib; first compound 0.02 µM) | relative viability (PAC-1 + Luminespib; first compound 0.06325 µM) | relative viability (PAC-1 + Luminespib; first compound 0.2 µM) | relative viability (PAC-1 + Luminespib; first compound 2 µM) | relative viability (PAC-1 + Crizotinib; first compound 0.02 µM) | relative viability (PAC-1 + Crizotinib; first compound 0.06325 µM) | relative viability (PAC-1 + Crizotinib; first compound 0.2 µM) | relative viability (PAC-1 + Crizotinib; first compound 2 µM) | relative viability (BMX-IN-1 + Luminespib; first compound 0.02 µM) | relative viability (BMX-IN-1 + Luminespib; first compound 0.2 µM) | relative viability (BMX-IN-1 + Luminespib; first compound 0.6325 µM) | relative viability (BMX-IN-1 + Luminespib; first compound 2 µM) | relative viability (PAC-1 + Trametinib; first compound 0.02 µM) | relative viability (PAC-1 + Trametinib; first compound 0.06325 µM) | relative viability (PAC-1 + Trametinib; first compound 0.2 µM) | relative viability (PAC-1 + Trametinib; first compound 2 µM) |
| --- | --- | --- | --- | --- | --- | --- | --- | --- | --- | --- | --- | --- | --- | --- | --- | --- | --- | --- | --- | --- |
| NCI-H2228 | 0.303 | 0.303 | 0.306 | 0.318 | 0.16 | 0.146 | 0.162 | 0.182 | 0.467 | 0.416 | 0.498 | 0.398 | 0.176 | 0.138 | 0.108 | 0.13 | 0.394 | 0.889 | 0.433 | 0.648 |
| EPLC-272H | 0.298 | 0.339 | 0.241 | 0.288 | 0.296 | 0.262 | 0.202 | 0.277 | – | 0.95 | 0.789 | 0.818 | 0.208 | 0.223 | 0.242 | 0.247 | 0.251 | 0.322 | 0.301 | 0.28 |
| SK-LU-1 | 0.568 | 0.547 | 0.432 | 0.587 | 0.216 | 0.375 | 0.223 | 0.191 | 0.788 | 0.856 | 0.93 | 0.794 | 0.172 | 0.194 | 0.189 | 0.196 | 0.495 | 0.481 | 0.484 | 0.584 |
| PC-3 [JPC-3] | 0.484 | 0.468 | 0.461 | 0.489 | 0.774 | 0.644 | 0.53 | 0.664 | 1.03 | 1.07 | 0.944 | 0.972 | 0.82 | 0.757 | 0.709 | 0.68 | 0.613 | 0.692 | 0.711 | 0.726 |
| ChaGo-K-1 | 0.462 | 0.493 | 0.513 | 0.439 | 0.645 | 0.737 | 0.645 | 0.715 | 1.15 | 1.17 | 1.09 | 1.03 | 0.665 | 0.708 | 0.536 | 0.778 | 0.951 | 0.917 | 0.837 | 0.94 |
| NCI-H3122 | 0.378 | 0.377 | 0.365 | 0.333 | 0.119 | 0.0845 | 0.0804 | 0.0955 | 0.251 | 0.274 | 0.234 | 0.294 | 0.114 | 0.0826 | 0.103 | 0.0683 | 0.213 | 0.253 | 0.205 | 0.189 |
| NCI-H1703 | – | – | – | – | – | – | – | – | 0.588 | 0.897 | 0.851 | 0.622 | – | – | – | – | – | – | – | – |
| NCI-H2126 | 0.515 | 0.524 | 0.517 | 0.513 | 0.989 | 0.889 | 0.93 | 0.948 | 1.03 | 1.02 | 1.05 | 1 | 1 | 0.974 | 1.17 | 0.909 | 0.548 | 0.535 | 0.563 | 0.55 |
| NCI-H1993 | 0.42 | 0.513 | 0.595 | 0.498 | 0.951 | 0.861 | 0.399 | 0.789 | 0.811 | 0.831 | 0.626 | 0.743 | 0.854 | 0.805 | 0.829 | 0.737 | 0.446 | 0.534 | 0.623 | 0.583 |
| NCI-H1793 | 0.327 | 0.376 | 0.355 | 0.353 | 0.207 | 0.216 | 0.164 | 0.17 | – | – | – | – | 0.172 | 0.167 | 0.167 | 0.204 | 0.363 | 0.423 | 0.39 | 0.405 |
| NCI-H441 | 0.881 | 0.993 | 0.705 | 0.752 | 0.285 | 0.254 | 0.471 | 0.335 | 0.725 | 0.77 | 0.714 | 0.655 | 0.384 | 0.428 | 0.56 | 0.279 | 0.408 | 0.629 | 0.482 | 0.411 |
| H3255 | 0.398 | 0.394 | 0.334 | 0.308 | 0.905 | 0.852 | 0.672 | 0.804 | 0.936 | 0.848 | 0.82 | 0.825 | 0.851 | 0.907 | 1.02 | 0.927 | 0.713 | 0.746 | 0.587 | 0.512 |
| NCI-H2342 | 0.552 | 0.474 | 0.579 | 0.611 | 0.655 | 0.82 | 0.759 | 0.777 | – | – | – | – | 0.774 | 0.765 | 0.707 | 0.703 | 1.16 | 0.816 | 0.697 | 0.83 |
| NCI-H522 | 0.78 | 0.662 | 0.693 | 0.631 | 1.15 | 1.06 | 0.975 | 1.17 | – | – | – | – | 1.24 | 1.26 | 1.1 | 1.19 | 0.675 | 0.915 | 0.848 | 0.77 |
| NCI-H1563 | 0.655 | 0.679 | 0.663 | 0.66 | 0.49 | 0.542 | 0.505 | 0.511 | 0.851 | 0.801 | 0.784 | 0.969 | 0.549 | 0.461 | 0.523 | 0.521 | – | – | – | – |
| NCI-H1623 | 0.6 | 0.565 | 0.592 | 0.602 | 0.465 | 0.473 | 0.515 | 0.499 | – | – | – | – | 0.431 | 0.52 | 0.804 | 0.484 | – | – | – | – |
| IA-LM | – | – | – | – | – | – | – | – | 0.862 | 0.865 | 0.75 | 0.751 | – | – | – | – | – | – | – | – |
| EBC-1 | – | – | – | – | – | – | – | – | 0.194 | 0.175 | 0.201 | 0.178 | – | – | – | – | – | – | – | – |
| NCI-H1395 | 0.45 | 0.429 | 0.421 | 0.426 | 0.656 | 0.585 | 0.651 | 0.653 | – | – | – | – | 0.745 | 0.546 | 0.71 | 0.887 | 1.1 | 1 | 0.976 | 0.974 |
